Test results published in patent US20250332173A1, “COMPOUNDS AND METHODS FOR MODULATING NUCLEIC ACID SPLICING” (REMIX THERAPEUTICS INC., priority 2021, published 2025).
Read-outs that look alike come from different tables or passages of the source.

Key:
SMN2 mRNA = assay: RT-qPCR splicing assay, SMN2 canonical junction (CJ) mRNA; type: cell-based, human; conditions: Homo sapiens; canonical junction qPCR panel, Table 5; read-out: SMN2 (decrease in CJ mRNA levels, IC50)
In short: (§1)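 Exposure: 24 h, 37 °C, 11-point 3-fold dilutions from 10 uM final, DMSO at or below 0.25%, in A673 or K562 cells. Detection: cell-lysate RT-qPCR of canonical junction mRNA relative to GAPDH, GUSB or PPIA.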

HTT mRNA = assay: RT-qPCR splicing assay, HTT canonical junction (CJ) and alternative junction (AJ) mRNA; type: cell-based, human; conditions: Homo sapiens; for AC50: increase in HTT alternative junction (AJ) mRNA, read-out: HTT AJ AC50
In short: (§2)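 24 h treatment, 37 °C/5% CO2; A673 or K562; 11-pt 3-fold series, top 10 uM final; DMSO ≤0.25%. Cell lysis with DNase I, then 1-step RT-qPCR. Housekeeping normalization: PPIA (A673), GAPDH or GUSB (K562).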

MYB mRNA = assay: RT-qPCR splicing assay, MYB canonical junction (CJ) and alternative junction (AJ) mRNA; type: cell-based, human; conditions: Homo sapiens; for AC50: increase in MYB alternative junction (AJ) mRNA, read-out: MYB AJ AC50
In short: as §2

Target C = assay: RT-qPCR splicing assay panel, Target C canonical junction (CJ) mRNA; type: cell-based, human; conditions: Homo sapiens; canonical junction qPCR panel, Table 5; read-out: Target C (decrease in CJ mRNA levels, IC50)
In short: as §1

[1] = test system: K562 (human chronic myelogenous leukemia) cells; assay: Cell Titer Glo 2.0 cell viability assay; type: cell-based; conditions: K562 cells, 72 hours, Cell Titer Glo 2.0, read-out: K562 GI50
[2] = decrease in HTT canonical junction (CJ) mRNA, RT-qPCR, read-out: HTT CJ IC50
[3] = canonical junction qPCR panel, Table 5, read-out: HTT (decrease in CJ mRNA levels, IC50)
[4] = canonical junction qPCR panel, Table 5, read-out: MYB (decrease in CJ mRNA levels, IC50)
[5] = decrease in MYB canonical junction (CJ) mRNA, RT-qPCR, read-out: MYB CJ IC50

SMILES | IC50 (SMN2 mRNA) [nM] | IC50 (HTT mRNA; [2]) [nM] | IC50 (HTT mRNA; [3]) [nM] | IC50 (MYB mRNA; [4]) [nM] | IC50 (MYB mRNA; [5]) [nM] | IC50 (Target C) [nM] | GI50 ([1]; Homo sapiens, K562, 72 h) [nM] | GI50 [1] [nM] | AC50 (HTT mRNA; RT-qPCR) [nM] | AC50 (MYB mRNA; RT-qPCR) [nM]
C[C@H]1C[C@@H](n2ccc3nc(-c4cc(F)c5nn(C)cc5c4)ncc3c2=O)CCN1 [Compound 1503, 2-(7-fluoro-2-methyl-indazol-5-yl)-6-[(2S,4S)-2-methyl-4-piperidyl]pyrido[4,3-d]pyrimidin-5-one] | < 100 | 100 to 1000 | 100 to 1000 | 100 to 1000 | < 100 | 100 to 1000 | 100 to 1000 | – | 100 to 1000 | 100 to 1000
Cc1cn2nc(-c3ccc4c(=O)n(C56CCC(N)(CC5)C6)ccc4n3)cc(C)c2n1 [Compound 1504, 6-(4-aminonorbornane-1-yl)-2-(2,8-dimethylimidazo[1,2-b]pyridazin-6-yl)-1,6-naphthyridin-5-one] | < 100 | 1000 to 10000 | 100 to 1000 | < 100 | < 100 | 1000 to 10000 | 100 to 1000 | – | 100 to 1000 | < 100
Cc1cn2nc(-c3ccc4c(=O)n([C@@H]5CCNC6(CCC6)C5)ccc4n3)cc(C)c2n1 [Compound 1517] | < 100 | 100 to 1000 | 100 to 1000 | 100 to 1000 | 100 to 1000 | 1000 to 10000 | 1000 to 10000 | – | 100 to 1000 | 100 to 1000
Cc1cn2nc(-c3ccc4c(=O)n([C@H]5CCNC6(CCC6)C5)ccc4n3)cc(C)c2n1 [Compound 1518] | < 100 | 100 to 1000 | 100 to 1000 | 100 to 1000 | < 100 | 100 to 1000 | 100 to 1000 | – | 100 to 1000 | 100 to 1000
Cc1c(O)c(-c2ccc3c(=O)n([C@H]4CCN[C@@H](C)C4)ccc3n2)cc2cn(C)nc12 [Compound 1520, 2-(6-hydroxy-2,7-dimethyl-indazol-5-yl)-6-[(2S,4S)-2-methyl-4-piperidyl]-1,6-naphthyridin-5-one] | < 100 | 100 to 1000 | < 100 | < 100 | < 100 | 100 to 1000 | < 100 | – | < 100 | < 100
Cc1c(O)c(-c2ncc3c(=O)n([C@H]4CC[C@H](N)C4)ccc3n2)cc2cn(C)nc12 [Compound 1521] | < 100 | 1000 to 10000 | 100 to 1000 | 100 to 1000 | 100 to 1000 | 1000 to 10000 | – | 100 to 1000 | 100 to 1000 | 100 to 1000
CNC12CCC(n3ccc4nc(-c5cc6cn(C)nc6c(C)c5O)ccc4c3=O)(CC1)C2 [Compound 1522] | < 100 | 100 to 1000 | 100 to 1000 | < 100 | < 100 | 100 to 1000 | < 100 | – | 100 to 1000 | < 100

More lines, main results first:

IC50 (SMN2 mRNA) [nM] | IC50 (HTT mRNA; [2]) [nM] | IC50 (HTT mRNA; [3]) [nM] | IC50 (MYB mRNA; [4]) [nM] | IC50 (MYB mRNA; [5]) [nM] | IC50 (Target C) [nM] | GI50 ([1]; Homo sapiens, K562, 72 h) [nM] | GI50 [1] [nM] | SMILES | AC50 (HTT mRNA; RT-qPCR) [nM] | AC50 (MYB mRNA; RT-qPCR) [nM]
< 100 | 1000 to 10000 | 100 to 1000 | 100 to 1000 | < 100 | 1000 to 10000 | 100 to 1000 | – | Cc1cn2cc(-c3nc(C)c4c(=O)n(C5C[C@H](C)N[C@@H](C)C5)ccc4n3)cc(F)c2n1 (stereo partly drawn) [Compound 1523] | 100 to 1000 | 100 to 1000
< 100 | 100 to 1000 | 100 to 1000 | 100 to 1000 | < 100 | 100 to 1000 | 100 to 1000 | – | Cc1cn2cc(-c3cc(C)c4c(=O)n(C5CCNCC5)ccc4n3)cc(F)c2n1 [Compound 1524, 2-(8-fluoro-2-methyl-imidazo[1,2-a]pyridin-6-yl)-4-methyl-6-(4-piperidyl)-1,6-naphthyridin-5-one] | 100 to 1000 | 100 to 1000
< 100 | 1000 to 10000 | 1000 to 10000 | < 100 | < 100 | > 10000 | < 100 | – | CNC12CCC(n3ccc4nc(-c5cc6cn(C)nc6cc5O)ccc4c3=O)(CC1)C2 [Compound 1525] | 1000 to 10000 | < 100
< 100 | > 10000 | 1000 to 10000 | < 100 | < 100 | > 10000 | 100 to 1000 | – | Cc1c(O)c(-c2ccc3c(=O)n(C45CCC(NC(C)C)(CC4)C5)ccc3n2)cc2cn(C)nc12 [Compound 1526] | 1000 to 10000 | < 100
100 to 1000 | 100 to 1000 | 100 to 1000 | 100 to 1000 | 100 to 1000 | 100 to 1000 | 100 to 1000 | – | Cc1cn2nc(-c3ccc4c(=O)n([C@H]5CCNC6(CCC6)C5)ncc4n3)cc(C)c2n1 [Compound 1544, 6-[(8S)-5-azaspiro[3.5]nonan-8-yl]-2-(2,8-dimethylimidazo[1,2-b]pyridazin-6-yl)pyrido[2,3-d]pyridazin-5-one] | 100 to 1000 | 100 to 1000
100 to 1000 | 1000 to 10000 | 100 to 1000 | 1000 to 10000 | 1000 to 10000 | 1000 to 10000 | 1000 to 10000 | – | Cc1cn2nc(-c3ccc4c(=O)n(C5CCNC6(CC6)C5)ncc4n3)cc2c(C)n1 (stereo not drawn) [Compound 1547, 6-(4-azaspiro[2.5]octan-7-yl)-2-(4,6-dimethylpyrazolo[1,5-a]pyrazin-2-yl)pyrido[2,3-d]pyridazin-5-one] | 100 to 1000 | 1000 to 10000
100 to 1000 | 100 to 1000 | 100 to 1000 | 100 to 1000 | 100 to 1000 | 100 to 1000 | 100 to 1000 | – | Cc1cn2nc(-c3ccc4c(=O)n([C@@H]5CCNC6(CC6)C5)ncc4n3)cc2c(C)n1 [Compound 1548, 6-[(7R)-4-azaspiro[2.5]octan-7-yl]-2-(4,6-dimethylpyrazolo[1,5-a]pyrazin-2-yl)pyrido[2,3-d]pyridazin-5-one] | 100 to 1000 | 100 to 1000
